Measurements taken from article PMC6040651 (Pediatric blood & cancer, 2018).
Where two headings read alike, the source gives them in different places. Values belong to the compound of their own block, whether it stands above or below them.

Key:
[1] = Isotretinoin pharmacokinetics, single sample on cycle 1 day 14; settings: human, serum, oral, 80 mg/m^2/dose, 4 hr after the last dose of isotretinoin in cycle 1 (80 mg/m^2/dose twice daily), 12 patients
[2] = tested on: refractory/recurrent neuroblastoma; assay: Antitumor activity; format: in vivo, patients; settings: vorinostat + isotretinoin
[3] = Phase I dose escalation and toxicity assessment; settings: dose level 5 (430 mg/m^2/dose) + isotretinoin, n = 6
[4] = tested on: xenografts from neuroblastoma cell lines; settings: xenografts from four of six neuroblastoma cell lines; cited from earlier work
[5] = dosed continuously; pediatric relapsed solid tumors; cited from earlier work
[6] = tested on: histone acetylation in PBMC; settings: cited from earlier work
[7] = Vorinostat serum pharmacokinetics, cycle 1
[8] = tested on: acetylated histone H3 in PBMC; assay: PBMC histone acetylation; format: in vivo, patients; settings: for Mean percent change in histone acetylation (HA) levels from baseline: PBMC
[9] = all dose levels, n = 23/28, geometric mean (95% confidence interval), oral, cycle 1
[10] = dose level 1 (180 mg/m^2/dose), n = 6/7, geometric mean (95% confidence interval), oral, cycle 1
[11] = dose level 5—MTD (430 mg/m^2/dose), n = 9/12, geometric mean (95% confidence interval), oral, cycle 1

concentration at 4 h ([1]; Median serum concentration): 830 ng/mL
concentration at 4 h ([1]; Serum concentration, range): 190 to 1400 ng/mL
SMILES: CC1=C(/C=C/C(C)=C/C=C/C(C)=C\C(=O)O)C(C)(C)CCC1 [isotretinoin, cis-13-retinoic acid]

SMILES: O=C(CCCCCCC(=O)Nc1ccccc1)NO [vorinostat, suberoylanilide hydroxamic acid]
Objective responses (CR or PR) ([2]; all dose levels, 19 patients evaluable for response): No objective responses
Patients who received 11–15 cycles of therapy ([2]; 7/29 patients): 24%
Patients completing ≥4 cycles without tumor progression ([2]; 11 of the 29 patients): 38%
6-month PFS rate ([2]; entire cohort of 29 patients): 0.36 ± 0.09
Median PFS ([2]; entire cohort of 29 patients, 95% confidence interval 1.6–11.0 months): 2.0 months
Number of patients with grade 3+ upper respiratory infection ([3]; all cycles): 1
Number of patients with grade 3+ upper respiratory infection ([3]; first cycle): 0
Event-free survival compared to control-treated mice [4]: statistically significant prolongation in event-free survival
MTD of vorinostat alone [5]: 230 mg/m^2/day
Histone acetylation in PBMC ([6]; continuous vorinostat MTD (230 mg/m^2/dose)): only transient PBMC HA was observed
Histone acetylation in PBMC ([6]; highest continuous dose level of vorinostat (300 mg/m^2/dose)): consistent PBMC HA
Clearance (Cl F obs) [7, 9]: 151 (115, 197) l/hr
Cmax [7, 9]: 428 (348, 526) ng/ml
Clearance (Cl F obs) [7, 10]: 152 (93, 250) l/hr
t½ [7, 10]: 2.6 (1.7, 4.0) hr
Clearance (Cl F obs) ([7]; dose level 2 (230 mg/m^2/dose), n = 2/3, geometric mean (95% confidence interval), oral, cycle 1): 181 (76, 427) l/hr
Clearance (Cl F obs) ([7]; dose level 3 (300 mg/m^2/dose), n = 3/3, geometric mean (95% confidence interval), oral, cycle 1): 129 (64, 260) l/hr
Clearance (Cl F obs) ([7]; dose level 4 (360 mg/m^2/dose), n = 3/3, geometric mean (95% confidence interval), oral, cycle 1): 322 (159, 649) l/hr
Clearance (Cl F obs) [7, 11]: 118 (79, 177) l/hr
t½ [7, 11]: 3.2 (2.3, 4.5) hr
AUC(0-inf) ([7]; human, serum, oral): 930 to 5780 ng·h/mL
Cmax ([7]; human, serum, oral): 158 to 980 ng/mL
clearance ([7]; human, serum, oral): 967 to 7250 mL/min
half-life ([7]; human, serum, oral): 1.2 to 10.1 h
AUC(0-inf) ([7]; human, serum, po): 2170 ng·h/mL
AUC(0-inf) ([7]; human, serum, po, 180 mg/m2): 1350 ng·h/mL
AUC(0-inf) ([7]; human, serum, po, 230 mg/m2): 1670 ng·h/mL
half-life ([7]; human, serum, po, 230 mg/m2): 2.4 h
AUC(0-inf) ([7]; human, serum, po, 300 mg/m2): 2640 ng·h/mL
Cmax ([7]; human, serum, po, 300 mg/m2): 552 ng/mL
AUC(0-inf) ([7]; human, serum, po, 430 mg/m2): 3250 ng·h/mL
Cmax ([7]; human, serum, po, 430 mg/m2): 587 ng/mL
Percent change from baseline in HA levels, dose level 5 compared to dose levels 1–4 ([8]; 1 hr post treatment, P = 0.009, difference persisted at hours 6 and 24): significantly greater
Mean percent change in histone acetylation (HA) levels from baseline ([8]; dose level 5, hour 1, 6 patients): 18.5%
Mean percent change in histone acetylation (HA) levels from baseline ([8]; dose level 5, hour 6, 6 patients): 21.9%
Mean percent change in histone acetylation (HA) levels from baseline ([8]; dose level 5, hour 24, 5 patients): 14.4%
Mean percent change in histone acetylation (HA) levels from baseline ([8]; dose levels 1–4, hour 1, 7 patients): –3.9%
Mean percent change in histone acetylation (HA) levels from baseline ([8]; dose levels 1–4, hour 6, 5 patients): –2.9%
